# From US20120083501A1, “COMPOUNDS FOR TREATING NEURODEGENERATIVE DISEASES” (priority 2010, published 2012)
# Target: T1, BACE1 (Homo sapiens, UniProt P56817)
# T1 construct: endogenous in cells; host or cells: HEK-293 cells stably transfected with wild type APP695
# Assay: Cellular BACE1 Inhibition Assay (in vitro cellular Amyloidβ 1-40 production, HTRF immunoassay)
# Type: cell-based
# Settings: inhibition of Amyloidβ 1-40 production; HEK-293 cells stably transfected with wild type APP695; 48 hours incubation; single assay or mean of multiple assays
# Description: The BACE inhibition properties of the compounds of the invention may be determined by the following in vitro cellular Amyloidβ 1-40 production assay.
# Inhibition of Amyloidβ 1-40 production was determined by incubating cells with compound for 48 hours and quantifying the level of Amyloidβ 1-40 using an homogeneous time-resolved fluorescence (“HTRF”) immunoassay.
# Materials and Methods: HEK-293 cells stably transfected with a DNA construct containing the coding sequence for the wild type APP695 sequence were grown in Dulbecco's Modified Eagle Medium (“DMEM”) supplemented with 10% fetal bovine serum, penicillin/streptomycin and 150 μg/mL G418. Cells were plated in 96-well plates at 35,000 cells/well and allowed to attach for 8-12 hours. Media was changed to DMEM supplemented with 10% fetal bovine serum, penicillin/streptomycin 15 minutes prior to compound addition. Diluted compounds were then added at a final concentration of 0.5% DMSO. After 48 hours, 4 μL of media from each well was added to a corresponding well of a 384 well plate (Perkin Elmer Cat#6008280) containing the HTRF reagents. HTRF reagents were obtained from the CisBio Amyloidβ 1-40 peptide assay kit (Cat# 62B40PEC) and were prepared as follows anti-peptide β (1-40)-Cryptate and anti-peptide β (1-40)-XL655 were stored in 2 plate aliquots at −80° C. Diluent and Reconstitution buffer were stored at 4° C. Aliquots of the two antibodies were diluted 1:100 with Reconstitution buffer, and this mixture was diluted 1:2 with Diluent. 12 μL of the reagent mixture was added to the required wells of the 384 well assay plate. The assay plate was incubated at 4° C. for 17 hours and then analyzed for fluorescence at 665 and 620 nm. The reported IC50 below may be from a single assay or the mean of multiple assays.
# T1 sequence (P56817 46-501): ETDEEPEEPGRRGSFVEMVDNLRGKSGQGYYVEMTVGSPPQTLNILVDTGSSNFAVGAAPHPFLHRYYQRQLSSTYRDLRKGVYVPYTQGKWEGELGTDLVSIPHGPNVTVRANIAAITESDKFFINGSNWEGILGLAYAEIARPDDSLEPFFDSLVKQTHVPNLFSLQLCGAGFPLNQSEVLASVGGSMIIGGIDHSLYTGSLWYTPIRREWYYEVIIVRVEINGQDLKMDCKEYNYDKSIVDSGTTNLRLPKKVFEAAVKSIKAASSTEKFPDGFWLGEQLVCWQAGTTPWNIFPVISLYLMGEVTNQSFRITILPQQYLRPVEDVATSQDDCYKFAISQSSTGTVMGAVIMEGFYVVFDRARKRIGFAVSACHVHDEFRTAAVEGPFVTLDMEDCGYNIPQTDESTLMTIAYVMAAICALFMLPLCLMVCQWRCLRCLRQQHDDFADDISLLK
row,Compound,IC50
1,"C[C@H]1OCCC2Oc3ccc(-c4cncc(Cl)c4)cc3[C@]3(N=C(N)N(C)C3=O)[C@@H]21 (mixture of isomers) [Example 50, (1′R*,4R*,4a′R*,10a′R*)-2-amino-8′45-chloropyridin-3-yl)-1,1′-dimethyl-3′,4′,4a′,10a'-tetrahydro-1′H-spiro[imidazole-4,10′-pyrano[4,3-b]chromen]-5(1H)-one]",13.2 nM
2,"CN1C(=O)[C@]2(N=C1N)c1cc(-c3cccnc3F)ccc1O[C@@]1(C)CCCO[C@H]12 (racemic) [Example 55, (4S*,4a′S*,10a′S*)-2-amino-8′-(2-fluoropyridin-3-yl)-1,4a′-dimethyl-3′,4′,4a′,10a′-tetrahydro-2′H-spiro[imidazole-4,10′-pyrano[3,2-b]chromen]-5 (1H)-one]",18.3 nM
3,"CN1C(=O)C2(N=C1N)c1cc(-c3cccnc3F)ccc1O[C@H]1CCCC[C@H]12 (relative stereo) [Example 14, cis 2-amino-7′-(2-fluoropyridin-3-yl)-1-methyl-1′,2′,3′,4′,4a′,9a′-hexahydrospiro[imidazole-4,9′-xanthen]-5(1H)-one]",48.3 nM
4,"CN1C(=O)C2(N=C1N)c1cc(-c3cncc(Cl)c3)ccc1O[C@H]1CCCC[C@@H]12 (relative stereo) [Example 15, trans 2-amino-7′-(5-chloropyridin-3-yl)-1-methyl-1′,2′,3′,4′,4a′,9a′-hexahydrospiro[imidazole-4,9′-xanthen]-5(1H)-one]",8.6 nM
5,"CN1C(=O)C2(N=C1N)c1cc(-c3cc(F)cc(Cl)c3)ccc1O[C@H]1CCCC[C@H]12 (relative stereo) [Example 32, cis 2-amino-7′-(3-chloro-5-fluorophenyl)-1-methyl-1′,2′,3′,4′,4a′,9a′-hexahydrospiro[imidazole-4,9′-xanthen]-5(1H)-one]",426 nM
6,"CN1C(=O)C2(N=C1N)c1cc(-c3cncc(Cl)c3)ccc1O[C@H]1CCCC[C@H]12 (relative stereo) [Example 33, cis 2-amino-7′-(5-chloropyridin-3-yl)-1-methyl-1′,2′,3′,4′,4a′,9a′-hexahydrospiro[imidazole-4,9′-xanthen]-5(1H)-one]",32.2 nM
7,"CN1C(=O)[C@]2(N=C1N)c1cc(-c3cncc(Cl)c3)ccc1O[C@]1(C)CCCO[C@H]12 (relative stereo) [Example 62, (4S*,4a′R*,10a′S*)-2-amino-8′-(5-chloropyridin-3-yl)-1,4a′-dimethyl-3′,4′,4a′,10a′-tetrahydro-2′H-spiro[imidazole-4,10′-pyrano[3,2-b]chromen]-5(1H)-one]",2.3 nM
8,"CN1C(=O)[C@]2(N=C1N)c1cc(-c3cccc(C#N)c3)ccc1O[C@]1(C)CCCO[C@H]12 (relative stereo) [Example 63, 3-((4S*,4a′R*,10a′S*)-2-amino-1,4a′-dimethyl-5-oxo-1,3′,4′,4a′,5,10a′-hexahydro-2′H-spiro[imidazole-4,10′-pyrano[3,2-b]chromen]-8′-yl)benzonitrile]",4.3 nM
9,"CN1C(=O)[C@]2(N=C1N)c1cc(-c3cccnc3F)ccc1O[C@@]1(C)CCCO[C@@H]12 (relative stereo) [Example 64, (4S*,4a′S*,10a′R*)-2-amino-8′-(2-fluoropyridin-3-yl)-1,4a′-dimethyl-3′,4′,4a′,10a′-tetrahydro-2′H-spiro[imidazole-4,10′-pyrano[3,2-b]chromen]-5(1H)-one]",1.8 nM
10,"CN1C(=O)C2(N=C1N)c1cc(-c3cc(F)cc(Cl)c3)ccc1OC1CC(O)CCC12 (stereo not drawn) [Example 1, 2-amino-7′-(3-chloro-5-fluorophenyl)-3′-hydroxy-1-methyl-1′,2′,3′,4′,4a′,9a′-hexahydro spiro[imidazole-4,9′-xanthen]-5(1H)-one]",2 nM
11,"CN1C(=O)C2(N=C1N)c1cc(-c3cccc(Cl)c3)ccc1OC1CC(O)CCC12 (stereo not drawn) [Example 2, 2-amino-7′-(3-chlorophenyl)-3′-hydroxy-1-methyl-1′,2′,3′,4′,4a′,9a′-hexahydrospiro[imidazole-4,9′-xanthen]-5(1H)-one]",1.5 nM
12,"CN1C(=O)C2(N=C1N)c1cc(-c3cncc(Cl)c3)ccc1OC1CC(O)CCC12 (stereo not drawn) [Example 3, 2-amino-7′-(5-chloropyridin-3-yl)-3′-hydroxy-1-methyl-1′,2′,3′,4′,4a′,9a′-hexahydrospiro[imidazole-4,9′-xanthen]-5(1H)-one]",1.3 nM
13,"CN1C(=O)C2(N=C1N)c1cc(-c3cncc(C(F)(F)F)c3)ccc1OC1CC(O)CCC12 (stereo not drawn) [Example 5, 2-amino-3′-hydroxy-1-methyl-7′-(5-(trifluoromethyl)pyridin-3-yl)-1′,2′,3′,4′,4a′,9a′-hexahydrospiro[imidazole-4,9′-xanthen]-5(1H)-one]",6.1 nM
14,"CN1C(=O)C2(N=C1N)c1cc(-c3cncnc3)ccc1OC1CC(O)CCC12 (stereo not drawn) [Example 6, 2-amino-3′-hydroxy-1-methyl-7′-(pyrimidin-5-yl)-1′,2′,3′,4′,4a′,9a′-hexahydrospiro[imidazole-4,9′-xanthen]-5(1H)-one]",36.2 nM
15,"CN1C(=O)C2(N=C1N)c1cc(-c3cc(F)cc(Cl)c3)ccc1OC1CC(C)(O)CCC12 (stereo not drawn) [Example 7, 2-amino-7′-(3-chloro-5-fluorophenyl)-3′-hydroxy-1,3′-dimethyl-1′,2′,3′,4′,4a′,9a′-hexahydrospiro[imidazole-4,9′-xanthen]-5(1H)-one]",35.9 nM
16,"CN1C(=O)C2(N=C1N)c1cc(-c3cc(F)cc(Cl)c3)ccc1OC1CC(=O)CCC12 (stereo not drawn) [Example 8, 2-amino-7′-(3-chloro-5-fluorophenyl)-1-methyl-1′,4′,4a′,9a′-tetrahydrospiro[imidazole-4,9′-xanthene]-3′,5(1H, 2′H)-dione]",5.5 nM
17,"CN1C(=O)C2(N=C1N)c1cc(-c3cc(F)cc(Cl)c3)ccc1OC1CC3(CCC12)OCCO3 (stereo not drawn) [Example 10, 2″-amino-7′-(3-chloro-5-fluorophenyl)-1″-methyl-1″,2′,4′,4′a,5″,9′a-hexahydro-1′H-dispiro[1,3-dioxolane-2,3′-xanthene-9′,4″-imidazole]-5″-one]",168 nM
18,CN1C(=O)C2(N=C1N)c1cc(-c3cc(F)cc(Cl)c3)ccc1OC1CCCC[C@@H]12 (stereo partly drawn) [Example 12],11.4 nM
19,"CN1C(=O)C2(N=C1N)c1cc(-c3cncc(Cl)c3)ccc1OC1CC(F)(F)CCC12 (stereo not drawn) [Example 17, 2-amino-7′-(5-chloropyridin-3-yl)-3′,3′-difluoro-1-methyl-1′,2′,3′,4′,4a′,9a′-hexahydrospiro[imidazole-4,9′-xanthen]-5(1H)-one]",74.1 nM
20,"CN1C(=O)C2(N=C1N)c1cc(-c3cncnc3)ccc1OC1CC(F)(F)CCC12 (stereo not drawn) [Example 18, 2-amino-3′,3′-difluoro-1-methyl-7′-(pyrimidin-5-yl)-1′,2′,3′,4′,4a′,9a′-hexahydrospiro[imidazole-4,9′-xanthen]-5(1H)-one]",125 nM
21,"CN1C(=O)C2(N=C1N)c1cc(-c3cccnc3F)ccc1OC1CC(F)(F)CCC12 (stereo not drawn) [Example 19, 2-amino-3′,3′-difluoro-7′-(2-fluoropyridin-3-yl)-1-methyl-1′,2′,3′,4′,4a′,9a′-hexahydrospiro[imidazole-4,9′-xanthen]-5(1H)-one]",21.4 nM
22,"CN1C(=O)C2(N=C1N)c1cc(-c3cc(F)cc(Cl)c3)ccc1OC1CC(F)(F)CCC12 (stereo not drawn) [Example 20, 2-amino-7′-(3-chloro-5-fluorophenyl)-3′,3′-difluoro-1-methyl-1′,2′,3′,4′,4a′,9a′-hexahydrospiro[imidazole-4,9′-xanthen]-5(1H)-one]",172 nM
23,"CCOC1CCC2C(C1)Oc1ccc(-c3cc(F)cc(Cl)c3)cc1C21N=C(N)N(C)C1=O (stereo not drawn) [Example 28, 2-amino-7′-(3-chloro-5-fluorophenyl)-3′-ethoxy-1-methyl-l′,2′,3′,4′,4a′,9a′-hexahydrospiro[imidazole-4,9′-xanthen]-5(1H)-one]",51.2 nM
24,"CN1C(=O)C2(N=C1N)c1cc(-c3cc(F)cc(Cl)c3)ccc1OC1CC(OCC3CC3)CCC12 (stereo not drawn) [Example 29, 2-amino-7′-(3-chloro-5-fluorophenyl)-3′-(cyclopropylmethoxy)-1-methyl-1′,2′,3′,4′,4a′,9a′-hexahydrospiro[imidazole-4,9′-xanthen]-5(1H)-one]",554 nM
25,"COC1CC[C@@H]2[C@@H](C1)Oc1ccc(-c3cc(F)cc(Cl)c3)cc1C21N=C(N)N(C)C1=O (stereo partly drawn) [Example 30, (4a′R,9a′S)-2-amino-7′-(3-chloro-5-fluorophenyl)-3′-methoxy-1-methyl-1′,2′,3′,4′,4a′,9a′-hexahydrospiro[imidazole-4,9′-xanthen]-5(1H)-one]",22.3 nM
26,"CN1CC[C@@H]2Oc3ccc(-c4cc(F)cc(Cl)c4)cc3C3(N=C(N)N(C)C3=O)[C@@H]2C1 (stereo partly drawn) [Example 34, (4aS,10aS)-2′-amino-8-(3-chloro-5-fluorophenyl)-1′,2-dimethyl-1,2,3,4,4a,10a-hexahydrospiro[chromeno[3,2-c]pyridine-10,4′-imidazol]-5′(1′H)-one]",1670 nM
27,"CN1C(=O)C2(N=C1N)c1cc(-c3cccc(Cl)c3)ccc1OC1CC(F)(F)CCC12 (stereo not drawn) [Example 35, 2-amino-7′-(3-chlorophenyl)-3′,3′-difluoro-1-methyl-1′,2′,3′,4′,4a′,9a′-hexahydrospiro[imidazole-4,9′-xanthen]-5(1H)-one]",271 nM
